Laboratory results taken from patent US20120316342A1, “THERAPEUTIC AGENT FOR HEPATITIS C” (priority 2010, published 2012).
Entries after “also recorded” stand apart in the source; their conditions may differ.

Legend:
Type in all cases: cell-based
[1] = tested on: Subgenomic HCV RNA replicon cells (LucNeo#2) having a luciferase gene; assay: Anti-HCV activity using replicon cells (luciferase assay); conditions: luciferase assay; for EC50: LucNeo#2 subgenomic replicon cells, 3 days, read-out: EC50; for anti-HCV activity (in words): Table 2, FIGS. 13 to 15
Experimental: Subgenomic HCV RNA replicon cells (LucNeo#2, Goto et al., Biochem. Biophys. Res. Commun., 2006, vol. 343, pp. 879-884) having a luciferase gene were suspended in a Dulbecco's modified Eagle medium (DMEM) containing 10% FBS and 1 mg/ml G418 (Sigma). The cells were incubated for 24 hours and then cultured in G418-free fresh media each containing test compounds at various concentrations for 3 days. In order to perform luciferase assays, the cells were washed with PBS and treated with a lysate for 10 minutes with intermittent agitation. A cell lysate (25 μl) was transferred to a white microtiter plate. Luciferase assay reagents (100 μl, Promega, Tokyo) were added to each well and the luciferase activity was measured with a luminometer.
(§1) Based on the luciferase assay results, the HCV genomic RNA level was measured, and a percentage (%) relative to the level of RNA of a control group to which the test compound was not administered was determined. Based on the results of tetrazolium staining, cell survival rates (%) of the group to which the test compound had been administered and of a control group were determined. The dose-response relationship of the test compound was analyzed based on the results of quantitative luciferase assays to determine EC50(μM), and the dose-response relationship of the test compound was analyzed based on the results of tetrazolium staining to determine CC50.

[2] = tested on: Subgenomic HCV RNA replicon cells (LucNeo#2); assay: Cytotoxicity (cell survival rate) by tetrazolium staining in luciferase replicon cells; conditions: for CC50: LucNeo#2 subgenomic replicon cells
Experimental: A tetrazolium staining solution (10 μl, Seikagaku Corporation, Tokyo) was added to each well in order to examine cytotoxicity (a cell survival rate). After the cells were incubated for 1 hour, the absorbance at the characteristic absorption wavelength (450 nm) was measured with the use of a microplate reader.
as §1

[3] = tested on: NNC #2 (full-length replicon) cells; assay: Anti-HCV activity using full-length replicon cells (HCV genomic RNA, real-time RT-PCR); conditions: FIGS. 3 to 6
Experimental: (§2) The 70% confluent #50-1 (subgenomic replion) cells or NNC #2 (full-length replicon) cells (Ishii et al., J. Virol., 2006, vol. 80, pp. 4510-4520) were dispersed in a culture bottle with the aid of trypsin, and the resulting dispersion was resuspended in a high-glucose Dulbecco's modified Eagle medium (DMEM) containing 10% FCS and 1 mg/ml G418 (Sigma) (see FIGS. 1 and 2). The cell suspension adjusted at 5×10^4 cells/ml with the use thereof was added to wells of a 96-well culture plate at 100 μl/well (the final cell density in each well: […]), and culture was conducted at 37° C. Supernatants of culture media were removed from wells of the plate on the following day, 200 μl each of the solutions of test compounds appropriately diluted with a G418-free culture solution were added, and culture was further continued. Samples were prepared from cells in each well 3 days later with the use of the TaqMan® Gene Expression Cell-to-CT® (Applied Biosystems). Reverse transcription was carried out in accordance with the protocols for the ABI 7500 PCR systems (Applied Biosystems) at 37° C. for 60 minutes, 95° C. for 5 minutes, and retained at 4° C. Real-time PCR was carried out in accordance with the protocols for the ABI 7500 real-time PCR systems (Applied Biosystems) at 50° C. for 2 minutes, 95° C. for 10 minutes, 40 cycles at 95° C. for 15 seconds, and 60° C. for 1 minute.
(§3) In accordance with the method mentioned above, the level of the HCV genomic RNA and, as the internal standard, the level of mRNA of glyceraldehyde-3-phosphate dehydrogenase (GAPDH) (a house keeping gene of the host cells) were assayed, and a percentage (%) relative to the level of RNA of a control group to which the test compound was not administered was determined. The dose-response relationship of the test compound was analyzed based on the measured level of the HCV genomic RNA to determine EC50, and the dose-response relationship of the test compound was analyzed based on the measured level of GAPDH RNA to determine CC50. The term “EC50” and “CC50” used herein refers to 50% effective concentration (μM) and 50% cytotoxic concentration (μM), respectively.

[4] = tested on: #50-1 (subgenomic replion) cells; assay: Anti-HCV activity using subgenomic replicon cells (HCV genomic RNA, real-time RT-PCR); conditions: concentration of 10 μM, relative to control group without test compound
Experimental: as §2, §3

SMILES	EC50 [1] [µM]	CC50 [2] [µM]	anti-HCV activity (in words) [3]	anti-HCV activity (in words) [1]	cytotoxicity (in words) ([2]; Table 2)	HCV genomic RNA level [4] [%]
CCCCn1c(=O)c2ccccc2c2cc(C(O)(C(F)(F)F)C(F)(F)F)c(OC)cc21 [KZ36, 5-butyl-2-(1′,1′,1′,3′,3′,3′-hexafluoro-2-hydroxypropan-2′-yl)-3-methoxy-phenanthridin-6(5H)-one]	2.2	5.7				
CCCCn1c(=O)c2c(OC)c(OC)c(OC)cc2c2cc(C(O)(C(F)(F)F)C(F)(F)F)ccc21 [KZ39, 5-butyl-2-(1′,1′,1′,3′,3′,3′-hexafluoro-2′-hydroxypropan-2′-yl)-7,8,9-trimethoxy-phenanthridin-6(5H)-one]	> 2	2				
O=c1c2ccccc2c2cc(C(O)(C(F)(F)F)C(F)(F)F)ccc2n1CC1CCCCC1 [AA-26, 2-(1′,1′,1′,3′,3′,3′-hexafluoro-2′-hydroxypropan-2′-yl)-5-cyclohexylmethyl-phenanthridin-6(5H)-one]			high degree of anti-HCV activity			
CCCCn1c(=O)c2ccc(OC)cc2c2cc(C(O)(C(F)(F)F)C(F)(F)F)ccc21 [KZ32, 5-butyl-2-(1′,1′,1′,3′,3′,3′-hexafluoro-2′-hydroxypropan-2′-yl)-9-methoxy-phenanthridin-6(5H)-one]	16.6	28.9				
CCCCn1c(=O)c2cc(OC)ccc2c2cc(C(O)(C(F)(F)F)C(F)(F)F)c3c(c21)OCO3 [HA-719, 4-butyl-11-(1′,1′,1′,3′,3′,3′-hexafluoro-2′-hydroxypropan-2′-yl)-7-methoxy-[1,3]dioxolo[4,5-c]phenanthridin-5(4H)-one]	0.05	6.4		very high; also recorded: high degree of anti-HCV activity	high degree of cytotoxicity	
CCCCn1c(=O)c2cc(OC)ccc2c2cc(C(OCc3ccccc3)(C(F)(F)F)C(F)(F)F)c3c(c21)OCO3 [HA-758, 11-(2′-benzyloxy-1′,1′,1′,3′,3′,3′-hexafluoropropan-2′-yl)-4-butyl-7-methoxy-[1,3]-dioxolo[4,5-c]phenanthridin-5(4H)-one]	1.71	> 100		high degree of anti-HCV activity at non-cytotoxic concentrations; also recorded: high degree of anti-HCV activity		
CCCCn1c(=O)c2c(OC)cccc2c2cc(C(O)(C(F)(F)F)C(F)(F)F)ccc21 [KZ31, 5-butyl-2-(1′,1′,1′,3′,3′,3′-hexafluoro-2′-hydroxypropan-2′-yl)-7-methoxy-phenanthridin-6(5H)-one]	10	12.6				
CCCCn1c(=O)c2ccccc2c2c(OC)c(C(OC)(C(F)(F)F)C(F)(F)F)cc(OC)c21 [KZ29, 5-butyl-2-(1′,1′,1′,3′,3′,3′-hexafluoro-2′-methoxypropan-2′-yl)-1,4-dimethoxy-phenanthridin-6(5H)-one]	30.4	> 100				
CCCCn1c(=O)c2cc(OC)c(OC)cc2c2cc(C(O)(C(F)(F)F)C(F)(F)F)ccc21 [KZ25, 5-butyl-2-(1′,1′,1′,3′,3′,3′-hexafluoro-2′-hydroxypropan-2′-yl)-8,9-dimethoxy-phenanthridin-6(5H)-one]	> 2.8	2.8				
CCCCn1c(=O)c2ccccc2c2cc(C(OCc3ccccc3)(C(F)(F)F)C(F)(F)F)c(OC)cc21 [KZ37, 2-(2′-benzyloxy-1′,1′,1′,3′,3′,3′-hexafluoropropan-2′-yl)-5-butyl-3-methoxy-phenanthridin-6(5H)-one]	2.6	> 100		high degree of anti-HCV activity at non-cytotoxic concentrations; also recorded: high degree of anti-HCV activity		
CCCCn1c(=O)c2cc(OC)ccc2c2cc(C(O)(C(F)(F)F)C(F)(F)F)c(OC)c(OC)c21 [HA-727, 5-butyl-2-(1′,1′,1′,3′,3′,3′-hexafluoro-2′-hydroxypropan-2′-yl)-3,4,8-trimethoxy-phenanthridin-6(5H)-one]	1.8	6.8				
CCCCn1c(=O)c2cc3c(cc2c2cc(C(O)(C(F)(F)F)C(F)(F)F)ccc21)OCO3 [KZ26, 5-butyl-2-(1′,1′,1′,3′,3′,3′-hexafluoro-2′-hydroxypropan-2′-yl)-[1,3]dioxolo[4,5-j]phenanthridin-6(5H)-one]	2.3	> 100		high degree of anti-HCV activity at non-cytotoxic concentrations		
CCCCn1c(=O)c2ccccc2c2cc(C(O)(C(F)(F)F)C(F)(F)F)c(OC)c(OC)c21 [HA-726, 5-butyl-2-(1′,1′,1′,3′,3′,3′-hexafluoro-2′-hydroxypropan-2′-yl)-3,4-dimethoxy-phenanthridin-6(5H)-one]	2.6	10.4				
CCCCn1c(=O)c2c(OC)cc(OC)cc2c2cc(C(O)(C(F)(F)F)C(F)(F)F)ccc21 [KZ38, 5-butyl-2-(1′,1′,1′,3′,3′,3′-hexafluoro-2′-hydroxypropan-2′-yl)-7,9-dimethoxy-phenanthridin-6(5H)-one]	2.6	8.2				
CCCCn1c(=O)c2cc(OC)ccc2c2c(OC)c(C(OC)(C(F)(F)F)C(F)(F)F)cc(OC)c21 [KZ30, 5-butyl-2-(1′,1′,1′,3′,3′,3′-hexafluoro-2′-methoxypropan-2′-yl)-1,4,8-trimethoxy-phenanthridin-6(5H)-one]	9.2	> 100		high degree of anti-HCV activity at non-cytotoxic concentrations		
CCCCn1c(=O)c2cc(OC)c(OC)c(OC)c2c2cc(C(O)(C(F)(F)F)C(F)(F)F)ccc21 [KZ28, 5-butyl-2-(1′,1′,1′,3′,3′,3′-hexafluoro-2′-hydroxypropan-2′-yl)-8,9,10-trimethoxy-phenanthridin-6(5H)-one]	8.3	9.4				
CCCCn1c(=O)c2ccccc2c2c(O)c(C(O)(C(F)(F)F)C(F)(F)F)ccc21 [KZ35, 5-butyl-2-(1′,1′,1′,3′,3′,3′-hexafluoro-2′-hydroxypropan-2′-yl)-1-hydroxy-phenanthridin-6(5H)-one]	44	52.3				
CCCCn1c(=O)c2c(OC)c(OC)ccc2c2cc(C(O)(C(F)(F)F)C(F)(F)F)ccc21 [KZ27, 5-butyl-2-(1′,1′,1′,3′,3′,3′-hexafluoro-2′-hydroxypropan-2′-yl)-7,8-dimethoxy-phenanthridin-6(5H)-one]	5.5	14.2				
CCCCn1c(=O)c2ccccc2c2c(C(C)C)cccc21 [MN315-A, 5-butyl-1-isopropylphenanthridin-6(5H)-one]						46.3
CCCCn1c(=O)c2cccc(OC)c2c2cc(C(O)(C(F)(F)F)C(F)(F)F)ccc21 [KZ33, 5-butyl-2-(1′,1′,1′,3′,3′,3′-hexafluoro-2′-hydroxypropan-2′-yl)-10-methoxy-phenanthridin-6(5H)-one]	5	6.9				
CCCCn1c(=O)c2ccccc2c2ccc(C(C)C)cc21 [MN315-B, 5-butyl-3-isopropylphenanthridin-6(5H)-one]						14.7
CCCCn1c(=O)c2ccccc2c2cc(C(O)(C(F)(F)F)C(F)(F)F)c3c(c21)OCO3 [HA-718, 4-butyl-1′-(1′,1′,1′,3′,3′,3′-hexafluoro-2′-hydroxypropan-2′-yl)-[1,3]dioxolo[4,5-c]phenanthridin-5(4H)-one]	0.29	24.2				
